Assays:
P. aeruginosa = experiment: Second screening: efficacy of dried film after abrasion (0 rub vs 12 dry rubs); assay type: cell-based; conditions: active 0.4%, film PVOH, about 30 mg; for Log10 Reduction, 12 dry Rubs: no re-inoculation between rubs
Procedure: (§1) First round of micro test was to evaluate the efficacy of the biocides against P. aeruginosa. About 30 mg of the biocide/polymer based formulation were coated on the one square inch area of a stainless steel coupon. The treated stainless steel coupons were left on the bench for air drying overnight. The dried stainless steel test samples were sent to a micro lab for efficacy testing against P. aeruginosa ATCC 15442 following a modified version of Residual Self-Sanitizing Activity on Hard, Non-Porous Surfaces (EPA Protocol #01-1A). […] Samples were inoculated with the test organism and held for a 5 minute contact time. Three replicates were tested for each sample. Second round of testing was to compare the efficacy after an abrasion process. About 30 mg of the test formulation was coated on the one square inch area of a stainless steel coupon. Samples were divided into two groups: one group had 0 rub, and the other group had 12 dry rubs. No re-inoculation was applied between rubs.

P. aeruginosa ATCC 15442 = experiment: First screening: residual self-sanitizing activity of dried film on stainless steel coupon, no wearing (modified EPA Protocol #01-1A); assay type: cell-based; conditions: about 30 mg on one square inch, dried overnight, 5 minute contact time
Procedure: as §1, with “sample.” for “sample. Second round of testing was to compare the efficacy after an abrasion process. About 30 mg of the test formulation was coated on the one square inch area of a stainless steel coupon. Samples were divided into two groups: one group had 0 rub, and the other group had 12 dry rubs. No re-inoculation was applied between rubs.”

[1] = active concentration 0.4%, film PVOH

Row | Compound | Log10 Reduction, 12 dry Rubs (P. aeruginosa) | Log10 Reduction, No Rub (P. aeruginosa) | Log reduction (with culture dilution), average (P. aeruginosa ATCC 15442; [1]) | Log reduction (with culture dilution), average (P. aeruginosa ATCC 15442; active concentration 0.4%, film PVP) | Log reduction (with culture dilution), average (P. aeruginosa ATCC 15442; active concentration 1.0%, film PVOH)
1 | CCCCCCCCCCCCN(CCCN)CCCN [N,N-bis(3-aminopropyl) dodecylamine, N,N-bis(3-aminopropyl)dodecylamine] | 4.77 log10 | 5.22 log10 | ≥4.85 log | 4.05 log | 
2 | Alkyldimethyl benzyl ammonium chlorides | 3.48 log10 | 3.56 log10 | 3.85 log |  | 
3 | N=C(NCCCCCCNC(=N)NC(=N)Nc1ccc(Cl)cc1)NC(=N)Nc1ccc(Cl)cc1 [Chlorhexidine digluconate] | 5.04 log10 | 5.42 log10 |  |  | ≥4.85 log

Reference: patent publication US10631537B2, “Disinfectant composition having residual biocidal properties” (LONZA LLC, priority 2016, dated 2020)
